Laboratory results from PMC3836994, “Killer Bee Molecules: Antimicrobial Peptides as Effector Molecules to Target Sporogonic Stages of Plasmodium” (PLoS Pathogens, 2013).
Non-standard residues stand in square brackets, D forms with d. No end group written: not given here. pGlu = O=C1CC[C@@H](C(=O)O)N1

Tests used:
P. falciparum = assay: Field P. falciparum from gametocyte carriers membrane-fed to An. gambiae (Mali); assay type: in vivo, Plasmodium falciparum; details: Replicate 1, 50 µM; for Oocyst prevalence (oocyst positive mosquitoes), peptide: blood of gametocyte carriers, progeny of field An. gambiae; for Oocyst intensity (mean number of oocysts per gut, range in parentheses), peptide: field parasites and mosquitoes
Description: Nyaganabougou, a village approximately 60 km south-west of the Malian capital, Bamako, was used as a site for the source of donors of malaria-infected blood. Due to its proximity to the river Niger, which provides perennial mosquito breeding sites, Nyaganabougou has high numbers of infected individuals and an extended transmission season. Mosquitoes used to establish the An. gambiae Mali colony used for this study were originally collected in the village of Kenieroba (a distance of 15 km from Nyaganabougou). Potential male and female gametocyte carriers between the ages of 6–10 were screened by thick smear and parasite species and density determined by local staff, led by Saibou Doumbia.
Gametocyte carriers were taken to the Malaria Research and Training Centre at the University of Bamako for blood donation. Approximately 4 ml of blood was extracted from carriers and immediately divided into 3 Hemotek membrane feeders for testing 2 separate AMPs and one control for each carrier. Peptides were added to 950 µl of gametocytaemic blood for a final concentration of 50 µM. All parasite-positive individuals were subsequently treated appropriately for parasites and associated symptoms, as determined by, and carried out by, local health workers in Nyaganabougou.
Approximately 120 adult female An. gambiae (Mali, 4–7 days old) were starved overnight, and allowed to feed on the gametocytaemic blood/AMP mix for 30 min. Engorged females were maintained on 10% glucose with 0.05% PABA for 8 days before dissection. No oviposition sites were provided so that fecundity could be measured by determining retained eggs. Mosquito wing length, numbers of retained eggs and oocysts were recorded, and triplicate peptide experiments were carried out on different mosquito cohorts, using blood from different donors. Where possible, a minimum of 50 mosquitoes were dissected for each condition.

[1] = tested on: Anopheles gambiae Sua 4.0 cells; assay: Sua 4.0 mosquito cell viability (erythrosin B exclusion); assay type: cell-based; set-up: dose or concentration left out as unconfirmed; details: after 48 h culture; for Average viability of cells (3 replicates), peptide: erythrosin B exclusion, 100 cells in triplicate wells; for Reduction in cell viability: versus control
Procedure: (§1) To establish potential effects of AMPs on mosquito cells, the An. gambiae Sua 4.0 cell line was used. This facilitated an initial high-throughput screening and provided insights into AMP toxicity, mode of action (lytic or other) and speed of action. Sua 4.0 cells were maintained at 27°C in Schneider's insect medium supplemented with 10% FBS (foetal bovine serum) in T25 culture flasks (Fisher, UK).
(§2) Each AMP was tested separately to establish if it affected cell viability and growth. […] Cells were maintained for 3, 6, 24 or 48 h, after which they were resuspended and a sub-sample from duplicate wells counted using a haemocytometer. To establish cell viability after 48 h (whether simply arrested in development or non-viable), resuspended cells were added to an equal volume of 5% erythrosin B vital dye and viable cells excluding the stain were counted. The viability of 100 cells in triplicate wells was recorded. Each AMP assay was performed in triplicate and included a negative control minus the peptide (5 µl of water alone added to the medium) and a further control of 5 µl of 10% SDS (sodium dodecyl sulphate) substituted for the AMP as this causes 100% cell lysis.

P. berghei ookinetes = assay: P. berghei ookinete viability in vitro (erythrosin B); assay type: cell-based, Plasmodium berghei; details: for Average ookinete viability (3 reps), peptide / Reduction in ookinete viability: 30 min; for Reduction in ookinete viability: versus control
Procedure: Our primary aim was to target parasites in mosquitoes before they cross the midgut wall, therefore AMPs were first assessed for their ability to kill ookinetes in vitro. […] Ookinete cultures of P. berghei were established from gametocytaemic blood as previously described. Parasites were enriched using cold 0.17M ammonium chloride after 18 h of culture and washed thoroughly with PBS (phosphate buffered saline). Parasites were seeded in triplicate wells of a 96-well microtitre plate at a density of 1×10^5/ml in a volume of 47.5 µl Schneider's insect medium (Invitrogen) with 2.5 µl of the test AMP (final concentration of 50 µM). Ookinetes were incubated for 30 min in conjunction with triplicate control wells containing medium with 2.5 µl of water instead of AMP. A sub-sample of parasites was then added to an equal volume of 5% erythrosin B to assess viability (150 ookinetes in total, taken from 3 wells). Each of the 33 AMPs was screened in this way and assays were performed 3 times. AMPs displaying a high degree of toxicity (>90% of ookinetes displaying erythrosin B staining) underwent further ookinete assays using a concentration of 100 µM AMP. To assess synergistic effects, combinations of two peptides were also tested at a concentration of 25 µM per AMP, in the assay described above.

[2] = tested on: An. gambiae (Mali strain); assay: Mosquito longevity after blood feeds containing AMP; assay type: in vivo, Anopheles gambiae; details: for Significance of effect on longevity over 10 days: 50 µM AMP, Kaplan-Meier, Wilcoxon, peptide vs control; for Percent alive, peptide: over 10 days, 50 µM AMP in human blood, feeds on days 0 and 7, 3 or 4 replicates
Procedure: (§3) Female An. gambiae (Mali strain, 3–5 days old) were used to establish the effects of AMPs on mosquito longevity and fecundity in the absence of confounding factors introduced with parasite infection. Two hundred 3–6 day old females were fed on human O+ whole blood supplemented with 50 µM AMP (or water control, 1 ml total volume) via feeding chambers of a Hemotek membrane feeding system. Fully engorged mosquitoes were randomly moved into four separate cages, each containing 25 mosquitoes, to facilitate monitoring. Mortality rates were recorded daily for a 10-day period, and oviposition sites were provided on the second and third night post-feeding. A second blood feed containing the same AMP was administered 7 days later to mimic the likelihood that mosquitoes would feed at least twice in the field during the development of sporogonic stages of the malaria parasite. Oviposition sites were again provided to assess fecundity through the number of eggs laid as an average per surviving mosquito. Assays for each AMP were repeated in triplicate on separate generations of mosquitoes. Due to egg retention under experimental conditions, egg production is best measured by dissecting mosquitoes that have not been provided with an oviposition site. However, this is not a feasible method of determining fecundity when longevity is also being measured.

[3] = tested on: An. gambiae (Mali strain); assay: Mosquito oviposition after blood feed containing AMP; assay type: in vivo, Anopheles gambiae; details: for Significance of effect on oviposition: 50 µM AMP, one-way ANOVA, peptide vs control; for Mean no. of eggs laid per mosquito, peptide: after first feed with 50 µM AMP, eggs laid over two nights, averaged per surviving mosquito, 3 or 4 replicates
Procedure: as §3

P. berghei = P. berghei infections in Anopheles stephensi (oocyst prevalence and intensity); assay type: in vivo, Plasmodium berghei; details: for Prevalence (proportion of infected mosquitoes), peptide: 50 µM peptide in gametocytaemic mouse blood fed to An. stephensi; for Intensity (mean number of oocysts, range in parentheses), peptide: 50 µM peptide, An. stephensi
Procedure: To assess the effects of AMPs on parasites in vivo, mouse blood containing P. berghei gametocytes was obtained by cardiac puncture and 475 µl was rapidly mixed with 25 µl (50 µM final concentration) of AMP. This mixture was fed to 100 nulliparous 3–5 day old female An. stephensi. A further 475 µl of blood from the same infection was mixed with 25 µl of distilled water to act as a control. Mosquitoes were maintained at 19°C for optimum parasite development. Between 30 and 50 mosquitoes were dissected after 10 days. Mosquito wing length, numbers of retained eggs and oocysts were recorded in triplicate experiments carried out on different mosquito cohorts.

[4] = tested on: Anopheles gambiae Sua 4.0 cells; assay: Sua 4.0 mosquito cell growth (cell counts); assay type: cell-based; details: 25 µM AMP; for Average number of cells over 3 replicates, peptide: seeded 30×10^4/ml, mean of 3 experiments
Procedure: as §1, §2

[5] = 50 µM of single peptide, n = 150 ookinetes per treatment per replicate

Compound | Oocyst prevalence (oocyst positive mosquitoes), peptide (P. falciparum) | Oocyst intensity (mean number of oocysts per gut, range in parentheses), peptide (P. falciparum) | Average viability of cells (3 replicates), peptide [1] | Reduction in cell viability [1] | Average ookinete viability (3 reps), peptide (P. berghei ookinetes; [5]) | Reduction in ookinete viability (P. berghei ookinetes; 50 µM of single peptide) | Average ookinete viability (3 reps), peptide (P. berghei ookinetes; 100 µM of single peptide) | Reduction in ookinete viability (P. berghei ookinetes; 100 µM of single peptide) | Significance of effect on longevity over 10 days [2] | Percent alive, peptide [2] | Significance of effect on oviposition [3] | Mean no. of eggs laid per mosquito, peptide [3] | Prevalence (proportion of infected mosquitoes), peptide (P. berghei; Replicate 1) | Intensity (mean number of oocysts, range in parentheses), peptide (P. berghei; Replicate 1) | Prevalence (proportion of infected mosquitoes), peptide (P. berghei; Replicate 2) | Intensity (mean number of oocysts, range in parentheses), peptide (P. berghei; Replicate 2) | Prevalence (proportion of infected mosquitoes), peptide (P. berghei; Replicate 3) | Intensity (mean number of oocysts, range in parentheses), peptide (P. berghei; Replicate 3) | other results
[pGlu]GMIGTLTSKRIKQ [Levitide, Isolated from skin secretions of Xenopus laevis] | 8% (60) | <1 (0–1) | – | – | – | – | – | – | – | – | – | – | – | – | – | – | – | – | –
RRWQWRMKKLG [Lactoferricin B, Product of pepsin cleavage of bovine lactoferrin] | 46% (37) | 2 (0–17) | – | – | – | – | – | – | – | – | – | – | – | – | – | – | – | – | –
CC[C@H](C)[C@H](N)C(=O)N[C@@H](CC(C)C)C(=O)N1CCC[C@H]1C(=O)N[C@@H](Cc1c[nH]c2ccccc12)C(=O)N[C@@H](CCCCN)C(=O)N[C@@H](Cc1c[nH]c2ccccc12)C(=O)N1CCC[C@H]1C(=O)N[C@@H](Cc1c[nH]c2ccccc12)C(=O)N[C@@H](Cc1c[nH]c2ccccc12)C(=O)N1CCC[C@H]1C(=O)N[C@@H](Cc1c[nH]c2ccccc12)C(=O)N[C@@H](CCCNC(=N)N)C(=O)N[C@@H](CCCNC(=N)N)C(N)=O [Indolicidin] | – | – | 61% | 36% | – | – | – | – | – | – | – | – | – | – | – | – | – | – | –
GLLKRIKTLL [Anoplin, 10 aa peptide isolated from the solitary wasp, homology to Mastoparan X] | – | – | – | – | 10% | 89% | 2% | 98% | N/S | 80% | N/S | 36 | 66% (44) | 21 (0–147) | 98% (50) | 74 (0–580) | 100% (50) | 177 (1–666) | –
Scorpine | – | – | – | – | – | – | – | – | – | – | – | – | – | – | – | – | – | – | Efficacy against malaria parasites (in words) (P. berghei ookinetes; in our hands, rodent or human malaria, test not specified further, actual concentration may have been lower than expected): not effective against rodent or human malaria
CKQSCSFGPFTFVCDGNTK (also: bicyclic or more (positions not given here)) [Duramycin, A lantibiotic from bacteria, 19 aa (Sigma D3168)] | – | – | 0% | 100% | 11% | 88% | 1% | 99% | N/S | 84% | N/S | 39 | 80% (50) | 17 (0–114) | 88% (50) | 59 (0–294) | 98% (50) | 135 (0–319) | Reduction in cell number (compared to control) ([4]; 3 hrs in culture): 42%; Average number of cells over 3 replicates, peptide ([4]; 3 hrs in culture, haemocytometer count of duplicate wells): 180000 mL⁻¹; Reduction in cell number (compared to control) ([4]; 24 hrs in culture): 73%; Average number of cells over 3 replicates, peptide ([4]; 24 hrs in culture): 130000 mL⁻¹; Reduction in cell number (compared to control) ([4]; 48 hrs in culture): 88%; Average number of cells over 3 replicates, peptide ([4]; 48 hrs in culture): 90000 mL⁻¹
